60 compounds from patent US20230123334A1, “AMINO LIPID COMPOUND, PREPARATION METHOD THEREFOR, AND APPLICATION THEREOF” (SHENZHEN SHENXIN BIOTECHNOLOGY CO., LTD., priority 2020, published 2023) can be followed below.

In the assay the test system is HEK293 cells. Put plainly: Preliminary screening as DNA vectors, GFP transfection of HEK293 cells. The assay is classed as cell-based. The settings on record: amino lipid/DOPE liposome with 75 ng plasmid DNA (psin-EGFP-IRES-Puro); number of GFP-expressing cells divided by total nuclei (Hoechst). In short, it runs like this: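 HEK293 cells in DMEM/10% FBS transfected with 75 ng EGFP plasmid per well complexed with amino lipid/DOPE liposomes in pH 5.6 sodium acetate. Hoechst nuclear stain added 20-24 h post-transfection, then cells cultured another 20-24 h. Confocal imaging gives GFP-positive cells as % of total nuclei.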

As to `CCCCCCCCCCCCCCCCSc1nc(NCCCCCCCCCCC)nc(NCC2CCN(C)CC2)n1` [S16N11 D10], the “Absolute DNA transfection efficiency in HEK293 cells” value (from here on “Absolute DNA transfection efficiency”) is recorded as 0.0%.
The result for `CCCCCCCCCCCCCCCCSc1nc(NCCCCCCCCCCCC)nc(NCCN(C)C)n1` [S16N12 D1] reads 4.2%; that for `CCCCCCCCCCCCCCCCSc1nc(NCCCCCCCCCCCC)nc(NCCN2CCOCC2)n1` [S16N12 D2], 0.0%.
Take `CCCCCCCCCCCCCCCCSc1nc(NCCCCCCCCCCCC)nc(NCCN2CCCC2)n1` [S16N12 D3]: the “Absolute DNA transfection efficiency” value amounted to 3.9%.
The result for `CCCCCCCCCCCCCCCCSc1nc(NCCCCCCCCCCCC)nc(NCCN2CCCCC2)n1` [S16N12 D4] reads 0.0%; that for `CCCCCCCCCCCCCCCCSc1nc(NCCCCCCCCCCCC)nc(NCCN2CCN(C)CC2)n1` [S16N12 D5], 1.9%; that for `CCCCCCCCCCCCCCCCSc1nc(NCCCCCCCCCCCC)nc(NCCCN(C)C)n1` [S16N12 D6], 2.7%.
The result for `CCCCCCCCCCCCCCCCSc1nc(NCCCCCCCCCCCC)nc(NCCN(CC)CC)n1` [S16N12 D7] reads 0.7%; that for `CCCCCCCCCCCCCCCCSc1nc(NCCCCCCCCCCCC)nc(NCCCN2CCOCC2)n1` [S16N12 D8], 0.0%; that for `CCCCCCCCCCCCCCCCSc1nc(NCCCCCCCCCCCC)nc(NCCCN2CCN(C)CC2)n1` [S16N12 D9], 11.4%.
The figure for `CCCCCCCCCCCCCCCCSc1nc(NCCCCCCCCCCCC)nc(NCC2CCN(C)CC2)n1` [S16N12 D10] is 2.1%; for `CCCCCCCCCCCCCCCCSc1nc(NCCCCCCCCCCCCC)nc(NCCN(C)C)n1` [S16N13 D1] it is 1.2%; for `CCCCCCCCCCCCCCCCSc1nc(NCCCCCCCCCCCCC)nc(NCCN2CCOCC2)n1` [S16N13 D2] it is 0.0%.
`CCCCCCCCCCCCCCCCSc1nc(NCCCCCCCCCCCCC)nc(NCCN2CCCC2)n1` [S16N13 D3]: the “Absolute DNA transfection efficiency” value is 1.5%.
The result for `CCCCCCCCCCCCCCCCSc1nc(NCCCCCCCCCCCCC)nc(NCCN2CCCCC2)n1` [S16N13 D4] reads 0.0%; that for `CCCCCCCCCCCCCCCCSc1nc(NCCCCCCCCCCCCC)nc(NCCN2CCN(C)CC2)n1` [S16N13 D5], 0.8%.
The result for `CCCCCCCCCCCCCCCCSc1nc(NCCCCCCCCCCCCC)nc(NCCCN(C)C)n1` [S16N13 D6] reads 1.2%; that for `CCCCCCCCCCCCCCCCSc1nc(NCCCCCCCCCCCCC)nc(NCCN(CC)CC)n1` [S16N13 D7], 3.7%.
The result for `CCCCCCCCCCCCCCCCSc1nc(NCCCCCCCCCCCCC)nc(NCCCN2CCOCC2)n1` [S16N13 D8] reads 0.2%.
For the compound `CCCCCCCCCCCCCCCCSc1nc(NCCCCCCCCCCCCC)nc(NCCCN2CCN(C)CC2)n1` [S16N13 D9], the “Absolute DNA transfection efficiency” value is 5.7%.
For the compound `CCCCCCCCCCCCCCCCSc1nc(NCCCCCCCCCCCCC)nc(NCC2CCN(C)CC2)n1` [S16N13 D10], the “Absolute DNA transfection efficiency” value was 2.0%.
For the compound `CCCCCCCCCCCCCCCCSc1nc(NCCCCCCCCCCCCCCC)nc(NCCN(C)C)n1` [S16N15 D1], the “Absolute DNA transfection efficiency” value is on record as 1.6%.
As for `CCCCCCCCCCCCCCCCSc1nc(NCCCCCCCCCCCCCCC)nc(NCCN2CCOCC2)n1` [S16N15 D2], the “Absolute DNA transfection efficiency” value turned out to be 0.0%.
The figure for `CCCCCCCCCCCCCCCCSc1nc(NCCCCCCCCCCCCCCC)nc(NCCN2CCCC2)n1` [S16N15 D3] is 0.0%; for `CCCCCCCCCCCCCCCCSc1nc(NCCCCCCCCCCCCCCC)nc(NCCN2CCCCC2)n1` [S16N15 D4] it is 2.6%; for `CCCCCCCCCCCCCCCCSc1nc(NCCCCCCCCCCCCCCC)nc(NCCN2CCN(C)CC2)n1` [S16N15 D5] it is 0.3%.
The figure for `CCCCCCCCCCCCCCCCSc1nc(NCCCCCCCCCCCCCCC)nc(NCCCN(C)C)n1` [S16N15 D6] is 0.0%.
The figure for `CCCCCCCCCCCCCCCCSc1nc(NCCCCCCCCCCCCCCC)nc(NCCN(CC)CC)n1` [S16N15 D7] is 0.6%.
For `CCCCCCCCCCCCCCCCSc1nc(NCCCCCCCCCCCCCCC)nc(NCCCN2CCOCC2)n1` [S16N15 D8], the “Absolute DNA transfection efficiency” value came out at 0.0%.
The figure for `CCCCCCCCCCCCCCCCSc1nc(NCCCCCCCCCCCCCCC)nc(NCCCN2CCN(C)CC2)n1` [S16N15 D9] is 0.3%.
The result for `CCCCCCCCCCCCCCCCSc1nc(NCCCCCCCCCCCCCCC)nc(NCC2CCN(C)CC2)n1` [S16N15 D10] reads 0.2%; that for `CCCCCCCCCCCCCCCCNc1nc(NCCN(C)C)nc(SCCCCCCCCCCCCCCCC)n1` [S16N16 D1], 0.7%.
The result for `CCCCCCCCCCCCCCCCNc1nc(NCCN2CCOCC2)nc(SCCCCCCCCCCCCCCCC)n1` [S16N16 D2] reads 0.0%.
For the compound `CCCCCCCCCCCCCCCCNc1nc(NCCN2CCCC2)nc(SCCCCCCCCCCCCCCCC)n1` [S16N16 D3], the “Absolute DNA transfection efficiency” value amounted to 1.6%.
The result for `CCCCCCCCCCCCCCCCNc1nc(NCCN2CCCCC2)nc(SCCCCCCCCCCCCCCCC)n1` [S16N16 D4] reads 3.4%.
The result for `CCCCCCCCCCCCCCCCNc1nc(NCCN2CCN(C)CC2)nc(SCCCCCCCCCCCCCCCC)n1` [S16N16 D5] reads 0.5%; that for `CCCCCCCCCCCCCCCCNc1nc(NCCCN(C)C)nc(SCCCCCCCCCCCCCCCC)n1` [S16N16 D6], 0.1%; that for `CCCCCCCCCCCCCCCCNc1nc(NCCN(CC)CC)nc(SCCCCCCCCCCCCCCCC)n1` [S16N16 D7], 0.2%.
The figure for `CCCCCCCCCCCCCCCCNc1nc(NCCCN2CCOCC2)nc(SCCCCCCCCCCCCCCCC)n1` [S16N16 D8] is 0.0%; for `CCCCCCCCCCCCCCCCNc1nc(NCCCN2CCN(C)CC2)nc(SCCCCCCCCCCCCCCCC)n1` [S16N16 D9] it is 0.0%.
In the case of `CCCCCCCCCCCCCCCCNc1nc(NCC2CCN(C)CC2)nc(SCCCCCCCCCCCCCCCC)n1` [S16N16 D10], the “Absolute DNA transfection efficiency” value was found to be 0.2%.
With `CCCCCCCCCCCCCCCCCCNc1nc(NCCN(C)C)nc(SCCCCCCCCCCCCCCCC)n1` [S16N18 D1], the “Absolute DNA transfection efficiency” value amounted to 0.3%.
The result for `CCCCCCCCCCCCCCCCCCNc1nc(NCCN2CCOCC2)nc(SCCCCCCCCCCCCCCCC)n1` [S16N18 D2] reads 0.0%; that for `CCCCCCCCCCCCCCCCCCNc1nc(NCCN2CCCC2)nc(SCCCCCCCCCCCCCCCC)n1` [S16N18 D3], 0.6%.
The result for `CCCCCCCCCCCCCCCCCCNc1nc(NCCN2CCCCC2)nc(SCCCCCCCCCCCCCCCC)n1` [S16N18 D4] reads 0.2%; that for `CCCCCCCCCCCCCCCCCCNc1nc(NCCN2CCN(C)CC2)nc(SCCCCCCCCCCCCCCCC)n1` [S16N18 D5], 0.0%; that for `CCCCCCCCCCCCCCCCCCNc1nc(NCCCN(C)C)nc(SCCCCCCCCCCCCCCCC)n1` [S16N18 D6], 0.0%.
The figure for `CCCCCCCCCCCCCCCCCCNc1nc(NCCN(CC)CC)nc(SCCCCCCCCCCCCCCCC)n1` [S16N18 D7] is 0.0%; for `CCCCCCCCCCCCCCCCCCNc1nc(NCCCN2CCOCC2)nc(SCCCCCCCCCCCCCCCC)n1` [S16N18 D8] it is 0.0%.
Take `CCCCCCCCCCCCCCCCCCNc1nc(NCCCN2CCN(C)CC2)nc(SCCCCCCCCCCCCCCCC)n1` [S16N18 D9]: the “Absolute DNA transfection efficiency” value is on record as 0.0%.
The figure for `CCCCCCCCCCCCCCCCCCNc1nc(NCC2CCN(C)CC2)nc(SCCCCCCCCCCCCCCCC)n1` [S16N18 D10] is 1.2%; for `CCCCCCCCCCCCCCCCSc1nc(NCCN(C)C)nc(N(CCCCCCCCCCCC)CCCCCCCCCCCC)n1` [S16^2N12 D1] it is 0.0%; for `CCCCCCCCCCCCCCCCSc1nc(NCCN2CCOCC2)nc(N(CCCCCCCCCCCC)CCCCCCCCCCCC)n1` [S16^2N12 D2] it is 0.0%.
The figure for `CCCCCCCCCCCCCCCCSc1nc(NCCN2CCCC2)nc(N(CCCCCCCCCCCC)CCCCCCCCCCCC)n1` [S16^2N12 D3] is 0.0%; for `CCCCCCCCCCCCCCCCSc1nc(NCCN2CCCCC2)nc(N(CCCCCCCCCCCC)CCCCCCCCCCCC)n1` [S16^2N12 D4] it is 0.1%.
The result for `CCCCCCCCCCCCCCCCSc1nc(NCCN2CCN(C)CC2)nc(N(CCCCCCCCCCCC)CCCCCCCCCCCC)n1` [S16^2N12 D5] reads 0.0%.
Turning to `CCCCCCCCCCCCCCCCSc1nc(NCCCN(C)C)nc(N(CCCCCCCCCCCC)CCCCCCCCCCCC)n1` [S16^2N12 D6], the “Absolute DNA transfection efficiency” value was determined as 0.0%.
Regarding `CCCCCCCCCCCCCCCCSc1nc(NCCN(CC)CC)nc(N(CCCCCCCCCCCC)CCCCCCCCCCCC)n1` [S16^2N12 D7], the “Absolute DNA transfection efficiency” value is on record as 0.1%.
The figure for `CCCCCCCCCCCCCCCCSc1nc(NCCCN2CCOCC2)nc(N(CCCCCCCCCCCC)CCCCCCCCCCCC)n1` [S16^2N12 D8] is 0.0%; for `CCCCCCCCCCCCCCCCSc1nc(NCCCN2CCN(C)CC2)nc(N(CCCCCCCCCCCC)CCCCCCCCCCCC)n1` [S16^2N12 D9] it is 0.6%.
